Assay results taken from ChEMBL document CHEMBL5032503 (J Med Chem, 2021).
pEC50, pKd: −log10 of the molar value. Activity calls are given as the source filed them. The rule behind the calls is not given here.

Columns and labels:
[1] = biological target: T1, Nuclear receptor subfamily 2 group E member 1 (Homo sapiens, UniProt Q9Y466); test: Agonist activity at in human TLX LBD expressed in human HEK293T cells coexpressing Gal4-VP 16 assessed as remaining activity measured after 14 hrs by luciferase reporter gene assay relative to control; format: cell-based; details: filed as agonist
[2] = biological target: T1, Nuclear receptor subfamily 2 group E member 1; test: Agonist activity at in human TLX LBD expressed in human HEK293T cells coexpressing Gal4-VP 16 assessed as increase in reporter activity measured after 14 hrs by luciferase reporter gene assay relative to control; format: cell-based; details: for pEC50: read-out: EC50; for EC50: hek293t
[3] = biological target: T1, Nuclear receptor subfamily 2 group E member 1; test: Agonist activity at in human TLX LBD expressed in human HEK293T cells coexpressing Gal4-VP 16 assessed as fold […] in reporter activity at 100 uM measured after 14 hrs by luciferase reporter gene assay relative to control; format: cell-based; details: filed as agonist
[4] = biological target: T1, Nuclear receptor subfamily 2 group E member 1; test: Inverse agonist activity at full length TLX activating element expressed in human HEK293T cells coexpressing human full-length TLX/Gal4-VP 16 assessed as fold […] in reporter activity at 100 uM by luciferase reporter gene assay relative to control; format: cell-based; details: filed as inverse agonist
[5] = biological target: T1, Nuclear receptor subfamily 2 group E member 1; test: Agonist activity at TAE expressed in human HEK293T cells coexpressing human full-length TLX/Gal4-VP 16 assessed as renilla luciferase reporter activity incubated for 14 hrs by Dual-glo luciferase
[6] = biological target: T1, Nuclear receptor subfamily 2 group E member 1; test: Agonist activity at full length TLX activating element expressed in human HEK293T cells coexpressing human full-length TLX/Gal4-VP 16 assessed as fold increase in reporter activity at 100 uM by luciferase reporter gene assay relative to control; format: cell-based; details: filed as agonist
[7] = biological target: T1, Nuclear receptor subfamily 2 group E member 1; test: Stabilization of human recombinant TLX LBD assessed as change in melting temperature at 500 uM by DSF assay
T98G [8] = test: Effect on TLX regulated gene expression in human T98G cells assessed as decrease in PTEN mRNA expression at 50 uM after 8 hrs by qRT-PCR analysis; format: functional, cell-based
T98G [9] = test: Effect on TLX regulated gene expression in human T98G cells assessed as decrease in TET3 mRNA expression at 50 uM after 8 hrs by qRT-PCR analysis; format: functional, cell-based
T98G [10] = test: Cytotoxicity against human T98G cells assessed as cell viability by WST-1 assay; format: functional, cell-based
T98G [11] = test: Induction of apoptosis in human T98G cells assessed as viable cells at 100 nM measured after 72 hrs by propidium iodide staining based flow cytometry; format: functional, cell-based
T98G [12] = test: Effect on TLX regulated gene expression in human T98G cells assessed as induction of SIRT1 mRNA expression at 50 uM after 8 hrs by qRT-PCR analysis; format: functional, cell-based
T98G [13] = test: Effect on TLX regulated gene expression in human T98G cells assessed as induction of mRNA expression at 50 uM after 8 hrs by qRT-PCR analysis; format: functional, cell-based
T98G [14] = test: Inhibition of cell migration in human T98G cells at 75 uM incubated for 24 hrs by crystal violet staining based by Boyden chamber method; format: functional
[15] = biological target: T1, Nuclear receptor subfamily 2 group E member 1; test: Inverse agonist activity at in human TLX LBD expressed in human HEK293T cells coexpressing Gal4-VP 16 assessed as fold increase in reporter activity at 100 uM measured after 14 hrs by luciferase reporter gene assay relative to control; format: cell-based; details: filed as inverse agonist
[16] = biological target: T1, Nuclear receptor subfamily 2 group E member 1; test: Agonist activity at human TLX LBD expressed in human HEK293T cells coexpressing Gal4-VP 16 incubated for 14 hrs at 300 uM; format: cell-based
[17] = Effect on Gal4-VP16 plasmid transfected in human HEK293T cells assessed as reporter activity incubated for 14 hrs by luciferase assay; format: functional, HEK-293T
[18] = biological target: T1, Nuclear receptor subfamily 2 group E member 1
Description: Binding affinity to TLX LBD expressed in His6-tagged Escherichia coli Rosetta assessed as binding constant measured after 300 sec at 200 mM by isothermal titration calorimetry

[19] = biological target: T1, Nuclear receptor subfamily 2 group E member 1; test: Agonist activity at full length TLX activating element expressed in human HEK293T cells coexpressing human full-length TLX/Gal4-VP 16 assessed as decrease in reporter activity at 100 uM by luciferase reporter gene assay relative to control
[20] = biological target: T1, Nuclear receptor subfamily 2 group E member 1; test: Agonist activity at human TLX LBD expressed in human HEK293T cells coexpressing Gal4-VP 16 incubated for 14 hrs at 100 uM; format: cell-based

T1 sequence (Q9Y466 whole entry, the tested form may be a part): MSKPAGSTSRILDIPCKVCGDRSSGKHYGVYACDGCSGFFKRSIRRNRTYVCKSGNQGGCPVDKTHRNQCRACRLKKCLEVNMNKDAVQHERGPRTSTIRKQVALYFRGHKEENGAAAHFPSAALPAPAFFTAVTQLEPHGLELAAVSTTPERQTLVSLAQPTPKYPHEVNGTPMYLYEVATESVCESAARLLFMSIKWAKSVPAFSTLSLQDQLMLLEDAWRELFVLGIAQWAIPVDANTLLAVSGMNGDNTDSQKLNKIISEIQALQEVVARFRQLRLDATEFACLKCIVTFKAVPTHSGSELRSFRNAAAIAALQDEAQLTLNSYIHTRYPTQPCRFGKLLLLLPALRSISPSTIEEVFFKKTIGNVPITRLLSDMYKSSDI

SMILES: CC(C)NC[C@H](O)COc1cccc2ccccc12 [LEVOPROPRANOLOL]
- fold change (FC) [1]: 0.25
- pEC50 [2]: 4.14

SMILES: c1ccc2c3c([nH]c2c1)CNCC3 [TRYPTOLINE]
- fold change (FC) [3]: 0.47
- fold change (FC) [4]: 2.2
- pEC50 [5]: < 4.00
- fold change (FC) [1]: 0.4
- fold change (FC) [6]: 2.15
- pEC50 [2]: 4.13
- ΔTm ([7]; filed as agonist): 1.2 °C

SMILES: CC(C)NCC(O)COc1ccc(CC(N)=O)cc1 (racemic) [ATENOLOL]
- Activity (T98G [8]): inactive
- Activity (T98G [9]): inactive
- Activity (T98G [10]): Active
- Activity (T98G [11]): inactive
- Activity (T98G [12]): inactive
- EC50 [2]: Not Active
- Activity (T98G [13]): inactive
- cell migration inhibition (active/not active call) (T98G [14]): inactive

SMILES: CC(C)N(C)CC(O)COc1cccc2ccccc12 (centres undefined)
- pEC50 [2]: < 4.00

SMILES: O=C(O)CCCc1ccc(-c2ccccc2)cc1
- fold change (FC) [3]: 0.34
- fold change (FC) [6]: 0.41
- ΔTm [7]: -1.4 °C

SMILES: CCCNCC(O)COc1ccccc1C(=O)CCc1ccccc1 (racemic) [PROPAFENONE]
- fold change (FC) [1]: 0.2
- pEC50 [2]: 4.33

SMILES: CCCCOc1cc(C(=O)NC)c2ccccc2n1
- fold change (FC) [3]: 32
- fold change (FC) [6]: 0.68
- ΔTm [7]: 1.1 °C

SMILES: Nc1cnc2ccccc2n1
- fold change (FC) [3]: 2.9
- fold change (FC) [4]: 1.8
- ΔTm ([7]; filed as modulator): 1.2 °C

SMILES: Cc1cn(-c2cc(N)cc(C(F)(F)F)c2)cn1
- fold change (FC) [3]: 0.44
- fold change (FC) [6]: 0.65
- ΔTm [7]: -3.2 °C

SMILES: COc1ccc2[nH]c(SC)nc2c1
- fold change (FC) [3]: 2.7
- fold change (FC) [4]: 1.33
- fold change (FC) [15]: 2.7
- ΔTm ([7]; filed as modulator): 0.5 °C

SMILES: NC1CCc2[nH]c3ccccc3c2C1 (centres undefined)
- fold change (FC) [3]: 0.45
- fold change (FC) [4]: 2.1
- pEC50 [5]: < 4.00
- fold change (FC) [1]: 0.5
- fold change (FC) [6]: 1.98
- pEC50 [2]: 4.17
- ΔTm ([7]; filed as agonist): 2.4 °C

SMILES: CC(C)NCC(O)COc1ccnc2ccccc12 (centres undefined)
- Activity [16]: inactive
- Activity (T98G [10]): Active
- Activity (T98G [11]): inactive
- cell migration inhibition (active/not active call) (T98G [14]): inactive

SMILES: CC(C)NCCCOc1cccc2ccccc12
- fold change (FC) [1]: 0.42
- pEC50 [2]: 4.30

SMILES: CNC(=O)c1cc(Cl)c(N)cc1OC
- fold change (FC) [3]: 0.46
- fold change (FC) [4]: 1.05
- ΔTm [7]: -0.3 °C

SMILES: O=C1Nc2ccccc2Nc2ccccc21
- fold change (FC) [3]: 0.47
- fold change (FC) [4]: 1.12
- ΔTm [7]: 0.6 °C

SMILES: CC(C)NCC(O)COc1cccc2ccccc12 (racemic) [PROPRANOLOL]
- Activity [17]: 8%
- pEC50 [5]: 4.43
- fold change (FC) [1]: 0.08
- Activity (T98G [8]): Active
- pKd [18]: 6.30
- Activity (T98G [9]): Active
- Activity (T98G [10]): Active
- pEC50 [19]: 4.49
- Activity (T98G [11]): inactive
- Activity (T98G [12]): Active
- pEC50 [2]: 4.49
- Activity (T98G [13]): Active
- cell migration inhibition (active/not active call) (T98G [14]): Active

SMILES: Clc1ccc(C(c2ccccc2)N2CCNCC2)cc1 (centres undefined)
- fold change (FC) [3]: 0.37
- fold change (FC) [6]: 0.57
- ΔTm [7]: -2.3 °C

SMILES: O=c1[nH]nc(Cc2ccccc2)c2ccccc12
- fold change (FC) [3]: 0.17
- fold change (FC) [6]: 0.57
- ΔTm [7]: -0.5 °C

SMILES: CC(C)NC[C@@H](O)COc1cccc2ccccc12 [DEXPROPRANOLOL]
- fold change (FC) [1]: 0.4
- pEC50 [2]: 4.40

SMILES: NCC(O)COc1cccc2ccccc12 (centres undefined)
- fold change (FC) [3]: 0.27
- fold change (FC) [4]: 2.3
- pEC50 [5]: 4.37
- fold change (FC) [1]: 0.07
- pEC50 [2]: 4.71
- ΔTm ([7]; filed as agonist): 1.5 °C

SMILES: OC(COc1cccc2ccccc12)CN1CCCCC1 (centres undefined)
- Activity [20]: inactive

SMILES: COC(CNC(C)C)COc1cccc2ccccc12 (centres undefined)
- fold change (FC) [1]: 0.28
- pEC50 [2]: 4.28

SMILES: CC(C)OCC(O)COc1cccc2ccccc12 (centres undefined)
- fold change (FC) [1]: 0.29
- pEC50 [2]: 4.08

SMILES: CC(C)NCC(O)c1ccc(NS(C)(=O)=O)cc1 (racemic) [SOTALOL]
- Activity (T98G [10]): Active
- Activity (T98G [11]): inactive
- EC50 [2]: Not Active
- cell migration inhibition (active/not active call) (T98G [14]): inactive

SMILES: CN1CC(=O)N2[C@H](c3ccc4c(c3)OCO4)c3[nH]c4ccccc4c3C[C@@H]2C1=O
- fold change (FC) [1]: 0.62
- pEC50 [2]: 5.30

SMILES: Cn1c(=O)[nH]c2[nH]cnc2c1=O
- fold change (FC) [4]: 1.47
- fold change (FC) [15]: 3.3
- ΔTm ([7]; filed as modulator): 1.1 °C

SMILES: CC(=O)N1CCN(c2ccc(O)cc2)CC1
- fold change (FC) [3]: 0.5
- fold change (FC) [6]: 0.86
- ΔTm [7]: 0.8 °C
